Laboratory results as given in US20120245346A1, “MALEIC ACID SALT AND CRYSTAL THEREOF” (Kyorin Pharmaceutical Co., Ltd., priority 2009, published 2012).
Structures can show the parent of a compound that is named as a salt. Where two headings read alike, the source gives them in different places.

Columns and labels:
Format in all cases: physicochemical
[1] = Solubility in water (Test Example 1, Stage 1)
Description: (§1) As the monomaleic acid salt, the sample in Example 5 was used in Stage 1 of Table 2, and the sample in Example 1 was used in Stage 2. The other samples in respective Stages of Table 2 were prepared in accordance with Patent Literature 1. The solubility and the stability as a drug substance of the respective samples were examined in Stage 1, and the crystallinity, phenomenon of crystal polymorphism, and presence or absence of adhesion water were examined in Stage 2.
Solubility: When the ratio of dissolved sample to water is 10 mg/mL or more, the solubility of the sample is represented as circle (◯), and when the ratio is 10 mg/mL or less, the solubility is represented as cross mark (x).

[2] = Adhesion water by thermal analysis TG-DTA (Test Example 1, Stage 2); conditions: for ADHESION WATER: decrease (%) in TG-DTA chart at about 50° C., Stage 2; for adhesion water (in words): TG-DTA decrease (%) at about 50° C.
Description: (§2) A sample (5 mg) was placed in a sample pan (a container made of aluminum), and thermal analysis TG-DTA of the sample was performed using EXSTAR 6000 thermal analyzer manufactured by Seiko Instruments Inc.
as §1
Adhesion water: When decrease (%) in the chart obtained from the thermal analysis TG-DTA is seen at about 50° C., the adhesion water is represented as “Presence,” and when the decrease (%) is not seen, the adhesion water is represented as “None.”

[3] = Stability as a drug substance, 2-week storage, HPLC assay of mainly degradation product (Test Example 1, Stage 1); conditions: 2-week storage at 25° C./75% RT (closed system), increase in HPLC area % of mainly degradation product
Description: as §1
Stability as a drug substance: The sample after 2-week storage at 25° C./75% RT (closed system) was assayed by high-performance liquid chromatography (HPLC) under conditions described below. When the increase in area percentage (%) of a mainly degradation product is less than +0.5%, the stability of drug substances is represented as circle (◯), and when the increase is +0.5% or more, the stability of drug substances is represented as cross mark (x). In Test Example 2, the mainly degradation product was assayed by HPLC under the same conditions.
Conditions of HPLC in test of stability as a drug substance
column: Atlantis dC18, 2.1 mm φ×15 cm, 3 μm Measurement wavelength: 254 nm column temperature: 40° C. Flow rate: 0.2 mL/min Mobile phase A: 0.05% formic acid aqueous solution Mobile phase B: 0.05% formic acid-acetonitrile solution Transfer of mobile phases: The mixed ratio of mobile phase A and mobile phase B is changed as shown in Table 1 to control the concentration gradient.

[4] = Crystallinity by powder x-ray diffraction (Test Example 1, Stage 2); conditions: for CRYSTALLINITY: powder x-ray diffraction peak intensity, Stage 2; for crystallinity (in words): powder x-ray diffraction
Description: (§3) A sample (about 100 mg) was (lightly) pulverized in an agate mortar, and a packed section of a sample flat holder made of glass was filled with the pulverized sample. Powder x-ray diffraction of the sample was then performed using RINT2200 powder x-ray diffractometer (Rigaku Corporation).
as §1
Crystallinity: In powder x-ray diffraction, when a peak intensity is 5000 cps or more, the crystallinity is represented as “High,” and when it is 5000 cps or less, the crystallinity is represented as “Low.”

[5] = Development of crystal polymorphism by TG-DTA and powder x-ray diffraction (Test Example 1, Stage 2); conditions: TG-DTA versus powder x-ray diffraction
Description: as §2, §3, §1
Development of crystal polymorphism: For crystals of the same salt, when the crystal structure shown by the thermal analysis TG-DTA is different from that shown by the powder x-ray diffraction, the development of crystal polymorphism is represented as “Presence”. On the other hand, when the thermal analysis TG-DTA and the powder x-ray diffraction show the same crystal structure, the development of crystal polymorphism is represented as “None.”

[6] = ratio of dissolved sample to water, Stage 1

SMILES | SOLUBILITY [1, 6] | ADHESION WATER [2] | STABILITY AS DRUG SUBSTANCE [3] | CRYSTALLINITY [4] | PHENOMENON OF CRYSTAL POLYMORPHISM [5] | adhesion water (in words) [2] | crystallinity (in words) [4] | also measured
CCc1cc(OC)cc2nc(-c3cccnc3N3CC[C@H](N(C)C)C3)oc(=O)c12 [DIHYDROCHLORIDE, 2-[2-((S)-3-dimethylaminopyrrolidin-1-yl)pyridin-3-yl]-5-ethyl-7-methoxy-4H-benz[d][1,3]oxazin-4-one] | ∘ | PRESENCE | x (when the increase is +0.5% or more) |  |  |  |  | solubility in water ([1]; water): ≥ 10000 µg/mL
CCc1cc(OC)cc2nc(-c3cccnc3N3CC[C@H](N(C)C)C3)oc(=O)c12 [FREE FORM, 2-[2-((S)-3-dimethylaminopyrrolidin-1-yl)pyridin-3-yl]-5-ethyl-7-methoxy-4H-benz[d][1,3]oxazin-4-one] | x (when the ratio is 10 mg/mL or less) |  | ∘ | LOW | AMORPHOUS |  |  | solubility in water ([1]; water, listed as free base): ≤ 2000 µg/mL
CCc1cc(OC)cc2nc(-c3cccnc3N3CC[C@H](N(C)C)C3)oc(=O)c12.Cl.O [MONOHYDROCHLORIDE, 2-[2-((S)-3-dimethylaminopyrrolidin-1-yl)pyridin-3-yl]-5-ethyl-7-methoxy-4H-benz[d][1,3]oxazin-4-one hydrochloride monohydrate] | ∘ | PRESENCE | ∘ | LOW | PRESENCE | adhesion water was present | low crystallinity and high amorphous content | SOLUBILITY ([1]; water, read-out: solubility in water): ≥ 10000 µg/mL
CCc1cc(OC)cc2nc(-c3cccnc3N3CC[C@H](N(C)C)C3)oc(=O)c12 [MONOMALEIC ACID, 2-[2-((S)-3-dimethylaminopyrrolidin-1-yl)pyridin-3-yl]-5-ethyl-7-methoxy-4H-benz[d][1,3]oxazin-4-one monomaleate] |  |  |  |  |  | adhesion water was not present | high crystallinity | SOLUBILITY ([1]; ratio of dissolved sample to water, Stage 1, monomaleate): ∘; solubility in water ([1]; water, listed as monomaleic acid salt, monomaleate): ≥ 10000 µg/mL; ADHESION WATER ([2]; monomaleate): NONE; STABILITY AS DRUG SUBSTANCE ([3]; monomaleate): ∘; CRYSTALLINITY ([4]; monomaleate): HIGH; PHENOMENON OF CRYSTAL POLYMORPHISM ([5]; monomaleate): PRESENCE
CCc1cc(OC)cc2nc(-c3cccnc3N3CC[C@H](N(C)C)C3)oc(=O)c12 [½D-TARTARIC ACID, 2-[2-((S)-3-dimethylaminopyrrolidin-1-yl)pyridin-3-yl]-5-ethyl-7-methoxy-4H-benz[d][1,3]oxazin-4-one] | ∘ | PRESENCE | x (when the increase is +0.5% or more) |  |  |  |  | solubility in water ([1]; water, listed as 1/2D-tartaric acid salt): ≥ 10000 µg/mL
CCc1cc(OC)cc2nc(-c3cccnc3N3CC[C@H](N(C)C)C3)oc(=O)c12 [¾L-TARTARIC ACID, 2-[2-((S)-3-dimethylaminopyrrolidin-1-yl)pyridin-3-yl]-5-ethyl-7-methoxy-4H-benz[d][1,3]oxazin-4-one] |  | PRESENCE | ∘ |  |  |  |  | SOLUBILITY ([1]; water, ratio of dissolved sample to water, Stage 1, read-out: SOLUBILITY): ≤ 10000 µg/mL
